Source: patent US10878939B2, “Methods and compositions for personalized pain management” (Children's Hospital Medical Center, priority 2014, dated 2020)

Test system: children undergoing tonsillectomy
Test: Postoperative analgesia measurements by ABCB1 genotype (Example 7)
Settings: for Maximum FLACC: median (IQR); for Post-Operative morphine: patients with at least one post-operative intervention
[1] = Blacks, ABCB1 Rs1128503 CC, N=24
[2] = Blacks, ABCB1 Rs1128503 TC, N=18
[3] = Blacks, ABCB1 Rs1128503 TT, N=2
[4] = Blacks, ABCB1 Rs2032582 GA, N=1
[5] = Blacks, ABCB1 Rs2032582 GG, N=35
[6] = Blacks, ABCB1 Rs2032582 GT, N=8
[7] = Blacks, ABCB1 Rs2229109 CA, N=1
[8] = Blacks, ABCB1 Rs2229109 CC, N=43
[9] = Blacks, ABCB1 Rs9282564 AA, N=41
[10] = Blacks, ABCB1 Rs9282564 GA, N=3
[11] = Blacks, ABCB1 rs10456542 CC, N=27
[12] = Blacks, ABCB1 rs10456542 TC, N=14
[13] = Blacks, ABCB1 rs10456542 TT, N=3
[14] = Whites, ABCB1 Rs1128503 CC, N=70
[15] = Whites, ABCB1 Rs1128503 TC, N=102
[16] = Whites, ABCB1 Rs1128503 TT, N=47
[17] = Whites, ABCB1 Rs2032582 GA, N=7
[18] = Whites, ABCB1 Rs2032582 GG, N=65
[19] = Whites, ABCB1 Rs2032582 GT, N=100
[20] = Whites, ABCB1 Rs2032582 TA, N=1
[21] = Whites, ABCB1 Rs2032582 TT, N=46
[22] = Whites, ABCB1 Rs2229109 CA, N=14
[23] = Whites, ABCB1 Rs2229109 CC, N=205
[24] = Whites, ABCB1 Rs9282564 AA, N=171
[25] = Whites, ABCB1 Rs9282564 GA, N=46
[26] = Whites, ABCB1 Rs9282564 GG, N=2
[27] = Whites, ABCB1 rs10456542 CC, N=49
[28] = Whites, ABCB1 rs10456542 TC, N=100

Method: All participants received standard perioperative care. Anesthesia was induced using sevoflurane followed by a propofol (2 mg/kg) bolus to facilitate endotracheal intubation. Anesthesia was maintained with sevoflurane without the use of neuromuscular blockade. […] All children receive prophylactic ondansetron (0.1 mg/kg) and dexamethasone (0.1 mg/kg) intraoperatively.
Blood was collected from each participant in the operating room under anesthesia and the DNA was isolated the same day and stored at −20 degree Celsius. Batched genotyping was performed after clinical data was entered on all study participants. The TaqMan allelic discrimination system assays and Genotyper Softerware Version 1.0.1 (Life Technologies, Applied Biosystems, Forest City, Calif.) were used to analyse and report the following ABCB1 polymorphisms: rs1045642, rs2032582, rs1128503, rs2229109, and rs9282564.
Prior to analysis, data qualities were examined. For the ABCB1 variants, allelic and genotype frequencies were assessed in white and black patients separately, and Hardy Weinberg equilibrium (HWE) was tested. To analyze binary outcomes (RD, prolonged PACU secondary to RD and analgesic intervention need), logistic regression was performed. […] Thus, maximum FLACC scores were analyzed using a zero-inflated negative binomial model to appropriately capture the distribution of this variable. […] To select the best fitting model, log likelihood, Akaike and Bayesian Information criterion were compared, and residuals were examined. […] To assess the single SNP association with the outcomes, additive models were used, in which the genotypes were recoded and tested as continuous variables. For the four bi-allelic SNPs, genotypes were recoded to 0, 1 and 2 according to the number of minor alleles. For rs2032582, GG genotype was recoded as 0; GA and GT genotypes were combined and recoded as 1, and TT and TA genotypes as 2. Statistical modeling was conducted with white and black patients separately and combined. When races were combined, the effects of race and race*SNP interaction were tested.

CN1CC[C@]23c4c5ccc(O)c4O[C@H]2[C@@H](O)C=C[C@H]3[C@H]1C5 [morphine]
median of maximum FLACC scores (263 patients): 3
patients who needed analgesic intervention(s) (263 patients): 62%
Analges. % (analgesic interventions %) [1]: 88%
Maximum FLACC [1]: 5 (4-8)
Post-Operative morphine (Blacks, ABCB1 Rs1128503 CC, N=24, mean ± SD): 0.12 ± 0.08 mg/kg
Analges. % (analgesic interventions %) [2]: 89%
Maximum FLACC [2]: 6 (3-9)
Post-Operative morphine (Blacks, ABCB1 Rs1128503 TC, N=18, mean ± SD): 0.13 ± 0.05 mg/kg
Analges. % (analgesic interventions %) [3]: 100%
Maximum FLACC [3]: 4 (0-8)
Post-Operative morphine (Blacks, ABCB1 Rs1128503 TT, N=2, mean ± SD): 0.08 ± 0.03 mg/kg
Analges. % (analgesic interventions %) [4]: 100%
Maximum FLACC [4]: 4 (4-4)
Post-Operative morphine [4]: 0.08 mg/kg
Analges. % (analgesic interventions %) [5]: 91%
Maximum FLACC [5]: 5 (3-8)
Post-Operative morphine (Blacks, ABCB1 Rs2032582 GG, N=35, mean ± SD): 0.12 ± 0.07 mg/kg
Analges. % (analgesic interventions %) [6]: 75%
Maximum FLACC [6]: 8 (2-9)
Post-Operative morphine (Blacks, ABCB1 Rs2032582 GT, N=8, mean ± SD): 0.11 ± 0.04 mg/kg
Analges. % (analgesic interventions %) [7]: 100%
Maximum FLACC [7]: 8 (8-8)
Post-Operative morphine [7]: 0.04 mg/kg
Analges. % (analgesic interventions %) [8]: 88%
Maximum FLACC [8]: 5 (3-8)
Post-Operative morphine (Blacks, ABCB1 Rs2229109 CC, N=43, mean ± SD): 0.12 ± 0.06 mg/kg
Analges. % (analgesic interventions %) [9]: 88%
Maximum FLACC [9]: 5 (3-8)
Post-Operative morphine (Blacks, ABCB1 Rs9282564 AA, N=41, mean ± SD): 0.12 ± 0.07 mg/kg
Analges. % (analgesic interventions %) [10]: 100%
Maximum FLACC [10]: 8 (8-10)
Post-Operative morphine (Blacks, ABCB1 Rs9282564 GA, N=3, mean ± SD): 0.10 ± 0.00 mg/kg
Analges. % (analgesic interventions %) [11]: 89%
Maximum FLACC [11]: 5 (4-8)
Post-Operative morphine (Blacks, ABCB1 rs10456542 CC, N=27, mean ± SD): 0.12 ± 0.07 mg/kg
Analges. % (analgesic interventions %) [12]: 86%
Maximum FLACC [12]: 7 (1-8)
Post-Operative morphine (Blacks, ABCB1 rs10456542 TC, N=14, mean ± SD): 0.12 ± 0.05 mg/kg
Analges. % (analgesic interventions %) [13]: 100%
Maximum FLACC [13]: 8 (3-8)
Post-Operative morphine (Blacks, ABCB1 rs10456542 TT, N=3, mean ± SD): 0.12 ± 0.11 mg/kg
Analges. % (analgesic interventions %) [14]: 57%
Maximum FLACC [14]: 3 (0-5)
Post-Operative morphine (Whites, ABCB1 Rs1128503 CC, N=70, mean ± SD): 0.09 ± 0.04 mg/kg
Analges. % (analgesic interventions %) [15]: 57%
Maximum FLACC [15]: 2 (0-5)
Post-Operative morphine (Whites, ABCB1 Rs1128503 TC, N=102, mean ± SD): 0.10 ± 0.05 mg/kg
Analges. % (analgesic interventions %) [16]: 53%
Maximum FLACC [16]: 1 (0-5)
Post-Operative morphine (Whites, ABCB1 Rs1128503 TT, N=47, mean ± SD): 0.08 ± 0.04 mg/kg
Analges. % (analgesic interventions %) [17]: 43%
Maximum FLACC [17]: 2 (1-5)
Post-Operative morphine (Whites, ABCB1 Rs2032582 GA, N=7, mean ± SD): 0.09 ± 0.05 mg/kg
Analges. % (analgesic interventions %) [18]: 58%
Maximum FLACC [18]: 4 (0-6)
Post-Operative morphine (Whites, ABCB1 Rs2032582 GG, N=65, mean ± SD): 0.09 ± 0.04 mg/kg
Analges. % (analgesic interventions %) [19]: 57%
Maximum FLACC [19]: 2 (0-5)
Post-Operative morphine (Whites, ABCB1 Rs2032582 GT, N=100, mean ± SD): 0.09 ± 0.05 mg/kg
Analges. % (analgesic interventions %) [20]: 100%
Maximum FLACC [20]: 8 (8-8)
Post-Operative morphine [20]: 0.21 mg/kg
Analges. % (analgesic interventions %) [21]: 52%
Maximum FLACC [21]: 1 (1-5)
Post-Operative morphine (Whites, ABCB1 Rs2032582 TT, N=46, mean ± SD): 0.09 ± 0.04 mg/kg
Analges. % (analgesic interventions %) [22]: 50%
Maximum FLACC [22]: 2 (1-4)
Post-Operative morphine (Whites, ABCB1 Rs2229109 CA, N=14, mean ± SD): 0.06 ± 0.02 mg/kg
Analges. % (analgesic interventions %) [23]: 57%
Maximum FLACC [23]: 2 (0-5)
Post-Operative morphine (Whites, ABCB1 Rs2229109 CC, N=205, mean ± SD): 0.09 ± 0.05 mg/kg
Analges. % (analgesic interventions %) [24]: 56%
Maximum FLACC [24]: 2 (0-5)
Post-Operative morphine (Whites, ABCB1 Rs9282564 AA, N=171, mean ± SD): 0.09 ± 0.04 mg/kg
Analges. % (analgesic interventions %) [25]: 54%
Maximum FLACC [25]: 2 (0-4)
Post-Operative morphine (Whites, ABCB1 Rs9282564 GA, N=46, mean ± SD): 0.09 ± .05 mg/kg
Analges. % (analgesic interventions %) [26]: 100%
Maximum FLACC [26]: 7 (6-7)
Post-Operative morphine (Whites, ABCB1 Rs9282564 GG, N=2, mean ± SD): 0.16 ± 0.07 mg/kg
Analges. % (analgesic interventions %) [27]: 63%
Maximum FLACC [27]: 4 (0-6)
Post-Operative morphine (Whites, ABCB1 rs10456542 CC, N=49, mean ± SD): 0.09 ± 0.03 mg/kg
Analges. % (analgesic interventions %) [28]: 52%
Maximum FLACC [28]: 2 (0-4)
Post-Operative morphine (Whites, ABCB1 rs10456542 TC, N=100, mean ± SD): 0.09 ± 0.05 mg/kg
Analges. % (analgesic interventions %) (Whites, ABCB1 rs10456542 TT, N=70): 57%
